Assay results as given in patent publication US20070161644A1, “Erastin analogs and uses thereof” (priority 2005, published 2007).

What was measured:
[1] = tested on: BJ-TERT/LT/ST/RAS^V12 cells; assay: Cell death in the presence of a pan-caspase inhibitor; type: cell-based, human; details: 50 μM inhibitor
[2] = tested on: cleaved, active caspase 3 in BJ-TERT/LT/ST/RAS^V12 cells; assay: Western blot for active caspase-3; type: cell-based, human; details: western blot of lysates
Protocol: BJ-TERT/LT/ST/RAS^V12 cells were seeded prior to the experiment at 5×10^5 cells in 60 mm dishes. The cells were treated with 5 μg/ml erastin (9 μM) for 2, 4, 6, 8 or 10 hours. One dish was maintained for camptothecin treatment (0.4 μg/ml for 24 h) as a positive control. Cells were lysed after each time point in lysis buffer (50 mM HEPES KOH pH 7.4, […], 2 mM EDTA, 0.5% Triton X-100, 1.5 mM Na3VO4, 50 mM NaF, 10 mM sodium pyrophosphate, 10 mM sodium beta-glycerophosphate and protease inhibitor tablet (Roche)). Protein content was quantified using a Biorad protein assay reagent. Equal amounts of protein were resolved on 16% SDS-polyacrylamide gel. The electrophoresed proteins were transblotted onto a PVDF membrane, blocked with 5% milk and incubated with anti-active caspase-3 polyclonal antibody (BD Pharmingen) at 1:1500 dilution overnight at 4° C. The membrane was then incubated in anti-rabbit-HRP (Santa Cruz Biotechnology) at 1:3000 dilution for 1 hour and developed with an enhanced chemiluminescence mixture (NEN life science, Renaissance). To test for equivalent loading in each lane, blots were stripped, blocked, and probed with an anti-eIF-4E antibody (BD Transduction laboratories) at 1:1000 dilution.

[3] = tested on: BJ-TERT/LT/ST/RAS^V12 cells; assay: Annexin V-FITC apoptosis assay; type: cell-based, human; details: camptothecin-treated (1 μM); untreated 6%
Protocol: BJ-TERT/LT/ST/RAS^V12 cells were seeded at 1×10^6 cells per dish in 100 mm dishes and allowed to grow overnight. Cells were treated with erastin (5 or 10 μg/ml) for 6, 8 or 11 h. A camptothecin-treated (0.4 μg/ml) control was maintained, treated at the time of seeding for 20 hours. After the treatment, cells were harvested with trypsin/EDTA and washed once with fresh medium containing serum and then twice with phosphate buffered saline. Cells were resuspended in 1× binding buffer (BD Pharmingen) at a concentration of 1×10^6 cells/ml. 100 μl (1×10^5 cells) was incubated with 5 μl of Annexin V-FITC (BD Pharmingen) and propidium iodiode (BD Pharmingen) for 15 minutes in the dark at room temperature. Then 400 μl of the 1× binding buffer was added and the cells analyzed by flow cytometry (Becton-Dickinson). Data were acquired and analyzed using Cellquest software.

[4] = tested on: BJ-TERT/LT/ST/RAS^V12 cells relative to BJ-TERT cells; assay: Alamar Blue viability assay, tumorigenic versus wild type cells; type: cell-based, human
Protocol: Alamar Blue is reduced by mitochondrial enzyme activity in viable cells, causing both colorimetric and fluorescent changes (Nociari et al., 1998, J. Immunol. Methods 13, 157-167). Cells were seeded at a density of 6000 cells (50 μl) per well in a 384-well black, clear bottom plate using a syringe bulk dispenser (Zymark). 10 μl was removed from a two-fold serially diluted erastin plate (6× final concentration) using a 384 fixed cannula head, making the final concentration 20 μg/ml in the well with highest concentration. The plates were incubated for 24 hours. Alamar Blue (Biosource International) was added to each well by diluting 1:10 and incubated for 16 hours at 37° C. Fluorescence intensity was determined using a Packard Fusion platereader with an excitation filter centered on 535 nm and an emission filter centered on 590 nm. Average percentage inhibition at each concentration was calculated. Error bars indicate one standard deviation.
The effect of erastin or erastin B on cell viability was measured using Alamar Blue as described in Example 3 in both tumorigenic BJ-TERT/LT/ST/RAS^V12 (BJELR) cells and wild type BJ-TERT (BJEH) cells. In this example, cell viability was measured at 1, 2, and 3 days after treatment with erastin or erastin B (data for days 1 and 3 not shown). Average percentage inhibition at each concentration was measured.
The effect on cell viability of each of the two isomers of Compound 20 was measured using the Alamar Blue assay described in Example 3 in both tumorigenic BJ-TERT/LT/ST/RAS^V12 cells and wild type BJ-TERT cells. Average percentage inhibition at each concentration was measured.
The effect on cell viability of erastin or Compound 21 was measured using the Alamar Blue assay as described in Example 3 in both tumorigenic BJ-TERT/LT/ST/RAS^V12 cells and in wild type BJ-TERT cells. Average percentage inhibition at each concentration was measured. […]

[5] = tested on: VDAC isoforms, Prohibitin and Ribophorin; assay: Pull-down with immobilized erastin derivatives; type: binding, human; details: pull-down from lysates, mitochondrial extract or MonoQ fractions
Protocol: Pull-down assays using immobilized erastin and cell lysates were used in an initial attempt to identify erastin binding partners inside a cell. Initial pull-down experiments were performed with HEK293, BJEH and BJELR whole cell lysates. In those experiments, a methyl-amino derivative of erastin (ERA-A6) was immobilized to Affigel 10 and incubated with lysate under standard pull-down conditions. The beads were washed and either eluted with 100 μM erastin or 0.8% N-lauroylsarcosine (sarkosyl). The eluates were subjected to mass spectrometric analysis.
Since Prohibitin and the VDAC isoforms are all mitochondrial proteins, Applicants enriched potential erastin targets by isolating mitochondria from cell lysates. The isolated mitochondrial extracts were then used in erastin pull-down experiments. In those erastin pull-down experiments with the mitochondrial extracts, Prohibitin, VDAC and Ribophorin were also identified by Western blot. […] The pull-downs were performed with 0.25 mg total protein of the mitochondrial extract. The beads were incubated with the extracts for 1.5 h at 4° C. and then washed several times. Proteins bound to the immobilized Erastin derivatives were eluted with 50 μL of 0.8% N-lauroylsarcosine solution. […]
Ribophorin and Prohibitin are rather acidic proteins with a calculated PI of 5.57 (Prohibitin) and 5.96 (Ribophorin I). […]

COC(=O)CC(NC(=O)OC(C)(C)C)C(=O)CF (centres unmarked) [Boc-Asp(Ome)-fluoromethyl ketone]
block of compound-induced cell death [1]: partially blocked cell death induced by CPT, but not by erastin

CC[C@@]1(O)C(=O)OCc2c1cc1n(c2=O)Cc2cc3ccccc3nc2-1 [Camptothecin, reference compound]
activated caspase 3 [2]: harbor activated caspase 3 | percentage of cells in M1 region (Annexin V staining) [3]: 38%

CCOc1ccccc1-n1c(C(C)N2CCN(C(=O)COc3ccc(CN)cc3)CC2)nc2ccccc2c1=O (centres unmarked) [Compound 19]
lethality in BJ-TERT/LT/ST/RAS^V12 (BJELR) cells compared to BJ-TERT (BJEH) cells [4]: selective lethality | binding of cellular proteins to the immobilized compound [5]: Prohibitin and Ribophorin were identified as binding to the Erastin beads
